The results in this text go back to paper PMC9856672, “SGC-CAMKK2-1: A Chemical Probe for CAMKK2” (Cells, 2023).

In one assay the target is T1, ACVR2B (Homo sapiens, UniProt Q13705).
T1 construct: purchased Eurofins DiscoverX KINOMEscan
The experiment in a line: KINOMEscan 1 μM, ACVR2B. It is filed as binding. To be noted: 1000 nM; Entrez ACVR2B; read-out: Percent Control. The text has this: (§1) Supplement cells-12-00287-s001.zip/File S2. KinomeScan data for the CAMKK2 probe and negative control.xlsx, sheet "SGC-CAMKK2-1" | column: Percent Control

The next assay addresses T2, MAK (Homo sapiens, UniProt P20794).
T2 construct: purchased Eurofins DiscoverX KINOMEscan
The experiment in a line: KINOMEscan 1 μM, MAK. It is filed as binding. To be noted: 1000 nM; Entrez MAK; read-out: Percent Control.
From the text: as §1

The next assay addresses T3, PAK1 (Homo sapiens, UniProt Q13153).
T3 construct: purchased Eurofins DiscoverX KINOMEscan
The experiment in a line: KINOMEscan 1 μM, PAK1. Format: binding. Particulars: 1000 nM; Entrez PAK1; read-out: Percent Control.
From the text: as §1

Another assay addresses T4, EGFR(S752-I759del) (Homo sapiens, UniProt P00533, DEL752-759).
T4 construct: purchased Eurofins DiscoverX KINOMEscan
The experiment in a line: KINOMEscan 1 μM, EGFR(S752-I759del). Format: binding. Particulars: 1000 nM; Entrez EGFR; read-out: Percent Control.
From the text: as §1

The next assay addresses T5, GSK3A (Homo sapiens, UniProt P49840).
T5 construct: purchased Eurofins DiscoverX KINOMEscan
In words: KINOMEscan 1 μM, GSK3A. To be noted: 1000 nM; Entrez GSK3A; read-out: Percent Control. It is filed as binding.
From the text: as §1

In the next assay the target is T6, TLK1 (Homo sapiens, UniProt Q9UKI8).
T6 construct: purchased Eurofins DiscoverX KINOMEscan
T6 sequence (Q9UKI8 whole entry): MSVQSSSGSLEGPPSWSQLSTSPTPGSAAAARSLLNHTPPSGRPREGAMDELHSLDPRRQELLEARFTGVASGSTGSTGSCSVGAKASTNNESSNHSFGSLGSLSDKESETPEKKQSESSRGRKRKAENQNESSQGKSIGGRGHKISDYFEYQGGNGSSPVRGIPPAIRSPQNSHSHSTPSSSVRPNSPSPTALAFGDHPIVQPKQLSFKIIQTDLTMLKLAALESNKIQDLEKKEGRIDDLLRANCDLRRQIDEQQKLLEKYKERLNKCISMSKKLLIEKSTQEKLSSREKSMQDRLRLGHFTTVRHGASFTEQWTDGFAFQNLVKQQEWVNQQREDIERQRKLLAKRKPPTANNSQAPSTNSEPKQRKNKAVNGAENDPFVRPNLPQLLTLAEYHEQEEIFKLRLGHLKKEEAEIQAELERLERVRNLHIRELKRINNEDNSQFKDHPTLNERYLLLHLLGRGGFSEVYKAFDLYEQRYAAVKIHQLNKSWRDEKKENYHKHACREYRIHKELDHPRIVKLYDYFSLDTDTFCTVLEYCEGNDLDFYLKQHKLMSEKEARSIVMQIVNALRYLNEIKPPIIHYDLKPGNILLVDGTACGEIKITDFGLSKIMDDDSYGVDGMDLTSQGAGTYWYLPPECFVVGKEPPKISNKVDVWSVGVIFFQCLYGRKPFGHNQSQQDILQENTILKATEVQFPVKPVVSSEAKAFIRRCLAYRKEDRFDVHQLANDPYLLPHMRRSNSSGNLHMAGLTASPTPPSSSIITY
In words: KINOMEscan 1 μM, TLK1. Format: binding. To be noted: 1000 nM; Entrez TLK1; read-out: Percent Control.
From the text: as §1

A further assay concerns the target T7, STK33 (Homo sapiens, UniProt Q9BYT3).
T7 construct: purchased Eurofins DiscoverX KINOMEscan
The experiment in a line: KINOMEscan 1 μM, STK33. Format: binding. Particulars: 1000 nM; Entrez STK33; read-out: Percent Control.
From the text: as §1

The target of assay [1] is T8, ABL1(Q252H)-nonphosphorylated (Homo sapiens, UniProt P00519, Q252H).
T8 construct: purchased Eurofins DiscoverX KINOMEscan
The experiment in a line: KINOMEscan 1 μM, ABL1(Q252H)-nonphosphorylated. Format: binding. To be noted: 1000 nM; Entrez ABL1; read-out: Percent Control.
From the text: as §1

Another assay addresses T9, EIF2AK1 (Homo sapiens, UniProt Q9BQI3).
T9 construct: purchased Eurofins DiscoverX KINOMEscan
The experiment in a line: KINOMEscan 1 μM, EIF2AK1. To be noted: 1000 nM; Entrez EIF2AK1; read-out: Percent Control. Format: binding.
From the text: as §1

For the next assay, the target named is T10, HIPK3 (Homo sapiens, UniProt Q9H422).
T10 construct: purchased Eurofins DiscoverX KINOMEscan
T10 sequence (Q9H422 whole entry): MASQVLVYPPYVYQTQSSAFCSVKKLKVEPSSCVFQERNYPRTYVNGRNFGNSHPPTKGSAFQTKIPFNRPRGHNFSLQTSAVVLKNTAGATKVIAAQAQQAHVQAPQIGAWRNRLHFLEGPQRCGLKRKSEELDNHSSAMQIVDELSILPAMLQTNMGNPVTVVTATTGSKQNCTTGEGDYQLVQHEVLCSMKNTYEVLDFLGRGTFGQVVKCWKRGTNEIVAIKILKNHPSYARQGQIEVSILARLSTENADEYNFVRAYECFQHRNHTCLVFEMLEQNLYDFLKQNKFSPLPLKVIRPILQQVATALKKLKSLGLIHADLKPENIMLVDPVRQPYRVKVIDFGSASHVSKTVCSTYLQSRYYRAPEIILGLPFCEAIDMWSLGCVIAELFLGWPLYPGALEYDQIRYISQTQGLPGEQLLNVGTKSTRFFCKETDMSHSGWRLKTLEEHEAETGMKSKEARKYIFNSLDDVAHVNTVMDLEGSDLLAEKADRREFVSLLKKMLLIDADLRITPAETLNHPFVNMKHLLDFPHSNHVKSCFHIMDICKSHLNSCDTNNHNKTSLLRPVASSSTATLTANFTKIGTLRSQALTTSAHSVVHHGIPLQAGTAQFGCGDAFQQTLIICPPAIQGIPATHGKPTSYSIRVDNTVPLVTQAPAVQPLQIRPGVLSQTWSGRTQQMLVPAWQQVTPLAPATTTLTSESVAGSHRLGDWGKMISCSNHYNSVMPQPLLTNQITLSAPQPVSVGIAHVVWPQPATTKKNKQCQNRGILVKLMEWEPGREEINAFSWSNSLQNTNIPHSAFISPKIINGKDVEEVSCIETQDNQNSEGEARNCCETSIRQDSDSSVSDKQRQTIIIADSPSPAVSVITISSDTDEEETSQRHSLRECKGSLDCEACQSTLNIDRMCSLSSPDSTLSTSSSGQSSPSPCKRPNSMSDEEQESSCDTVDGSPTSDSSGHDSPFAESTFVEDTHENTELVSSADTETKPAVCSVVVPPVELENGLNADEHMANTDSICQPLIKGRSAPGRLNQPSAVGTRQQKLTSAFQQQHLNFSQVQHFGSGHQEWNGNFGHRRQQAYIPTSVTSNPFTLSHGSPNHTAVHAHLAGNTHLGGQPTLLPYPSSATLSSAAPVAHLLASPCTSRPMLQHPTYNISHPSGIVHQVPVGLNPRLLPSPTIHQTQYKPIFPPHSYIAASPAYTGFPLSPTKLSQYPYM
In words: KINOMEscan 1 μM, HIPK3. It is filed as binding. Particulars: 1000 nM; Entrez HIPK3; read-out: Percent Control.
From the text: as §1

For assay [2], the target named is T11, IKK-alpha (Homo sapiens, UniProt O15111).
T11 construct: purchased Eurofins DiscoverX KINOMEscan
T11 sequence (O15111 whole entry): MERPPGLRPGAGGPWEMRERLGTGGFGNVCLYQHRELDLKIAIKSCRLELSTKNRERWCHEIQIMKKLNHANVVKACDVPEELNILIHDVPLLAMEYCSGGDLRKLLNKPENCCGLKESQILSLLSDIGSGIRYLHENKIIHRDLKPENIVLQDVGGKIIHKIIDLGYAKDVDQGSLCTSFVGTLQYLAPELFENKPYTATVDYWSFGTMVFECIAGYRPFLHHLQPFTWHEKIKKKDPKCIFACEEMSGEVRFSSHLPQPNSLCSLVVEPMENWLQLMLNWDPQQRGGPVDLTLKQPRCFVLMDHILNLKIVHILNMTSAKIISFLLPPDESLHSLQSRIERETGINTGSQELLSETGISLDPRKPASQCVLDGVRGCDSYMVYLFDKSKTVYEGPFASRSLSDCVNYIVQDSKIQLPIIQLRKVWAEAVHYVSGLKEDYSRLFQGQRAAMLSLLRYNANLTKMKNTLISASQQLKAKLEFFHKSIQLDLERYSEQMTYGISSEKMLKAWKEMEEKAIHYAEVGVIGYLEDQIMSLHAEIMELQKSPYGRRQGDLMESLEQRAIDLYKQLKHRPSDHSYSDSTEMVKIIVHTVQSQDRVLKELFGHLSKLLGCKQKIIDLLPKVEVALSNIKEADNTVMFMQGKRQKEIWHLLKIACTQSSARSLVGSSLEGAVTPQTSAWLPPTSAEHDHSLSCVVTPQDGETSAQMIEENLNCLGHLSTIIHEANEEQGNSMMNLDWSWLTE
In words: KINOMEscan 1 μM, IKK-alpha. Particulars: 1000 nM; Entrez CHUK; read-out: Percent Control. Format: binding.
From the text: as §1

The target of a further assay is T12, JNK1 (Homo sapiens, UniProt P45983).
T12 construct: purchased Eurofins DiscoverX KINOMEscan
T12 sequence (P45983 whole entry): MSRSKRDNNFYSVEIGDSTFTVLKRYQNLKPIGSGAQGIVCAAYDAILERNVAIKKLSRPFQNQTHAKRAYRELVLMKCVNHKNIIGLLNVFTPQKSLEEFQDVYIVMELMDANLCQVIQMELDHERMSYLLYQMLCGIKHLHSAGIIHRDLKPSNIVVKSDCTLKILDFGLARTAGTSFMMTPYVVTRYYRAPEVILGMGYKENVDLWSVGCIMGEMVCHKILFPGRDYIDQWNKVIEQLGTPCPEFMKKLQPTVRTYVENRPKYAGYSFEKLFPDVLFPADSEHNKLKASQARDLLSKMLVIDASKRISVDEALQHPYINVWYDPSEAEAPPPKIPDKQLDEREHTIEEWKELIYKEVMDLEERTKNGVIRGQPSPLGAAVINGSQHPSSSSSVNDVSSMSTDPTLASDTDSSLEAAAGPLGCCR
The experiment in a line: KINOMEscan 1 μM, JNK1. To be noted: 1000 nM; Entrez MAPK8; read-out: Percent Control. Format: binding.
From the text: as §1

The next assay deals with T13, MST1 (Homo sapiens, UniProt Q13043).
T13 construct: purchased Eurofins DiscoverX KINOMEscan
The experiment in a line: KINOMEscan 1 μM, MST1. Format: binding. Particulars: 1000 nM; Entrez STK4; read-out: Percent Control.
From the text: as §1

Another assay has as its target T14, PDGFRA (Homo sapiens, UniProt P16234).
T14 construct: purchased Eurofins DiscoverX KINOMEscan
In words: DiscoverX KINOMEscan binding assay at 1 μM, PDGFRA. To be noted: Compound Concentration 1000 nM, read-out: Percent Control.
From the text: as §1

The target of another assay is T15, PLK4 (Homo sapiens, UniProt O00444).
T15 construct: purchased Eurofins DiscoverX KINOMEscan
In words: DiscoverX KINOMEscan binding assay at 1 μM, PLK4. To be noted: Compound Concentration 1000 nM, read-out: Percent Control.
From the text: as §1

For another assay, the target named is T16, SRPK3 (Homo sapiens, UniProt Q9UPE1).
T16 construct: purchased Eurofins DiscoverX KINOMEscan
The experiment in a line: DiscoverX KINOMEscan binding assay at 1 μM, SRPK3. Particulars: Compound Concentration 1000 nM, read-out: Percent Control.
From the text: as §1

In a further assay the target is T17, GSK3B (Homo sapiens, UniProt P49841).
T17 construct: purchased Eurofins DiscoverX KINOMEscan
The experiment in a line: KINOMEscan at 1 μM, GSK3B. It is filed as binding. Particulars: 1000 nM, read-out: Percent Control. The text has this: (§2) Supplement cells-12-00287-s001.zip/File S2. KinomeScan data for the CAMKK2 probe and negative control.xlsx, sheet "SGC-CAMKK2-1N" | column: Percent Control

For a further assay, the target named is T18, CDK11 (Homo sapiens, UniProt Q9BWU1).
T18 construct: purchased Eurofins DiscoverX KINOMEscan
T18 sequence (Q9BWU1 whole entry): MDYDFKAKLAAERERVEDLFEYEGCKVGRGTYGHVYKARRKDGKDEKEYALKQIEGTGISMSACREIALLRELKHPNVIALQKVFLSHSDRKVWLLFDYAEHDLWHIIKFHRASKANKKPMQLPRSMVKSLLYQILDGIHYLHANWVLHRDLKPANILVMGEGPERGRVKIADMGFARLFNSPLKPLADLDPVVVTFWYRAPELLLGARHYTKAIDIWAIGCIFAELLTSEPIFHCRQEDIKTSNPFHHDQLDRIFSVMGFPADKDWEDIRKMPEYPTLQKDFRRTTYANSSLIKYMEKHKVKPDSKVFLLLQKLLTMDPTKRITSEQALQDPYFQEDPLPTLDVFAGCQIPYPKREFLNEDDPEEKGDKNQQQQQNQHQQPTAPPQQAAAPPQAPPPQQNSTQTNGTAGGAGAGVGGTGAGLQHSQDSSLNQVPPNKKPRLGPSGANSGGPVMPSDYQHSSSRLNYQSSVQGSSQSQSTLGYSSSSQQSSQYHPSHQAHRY
In words: KINOMEscan at 1 μM, CDK11. Format: binding. To be noted: 1000 nM, read-out: Percent Control.
From the text: as §2

In assay [3] the target is T11, IKK-alpha. In words: KINOMEscan at 1 μM, IKK-alpha. To be noted: 1000 nM, read-out: Percent Control. It is filed as binding.
From the text: as §2

The next assay has as its target T19, STK39 (Homo sapiens, UniProt Q9UEW8).
T19 construct: purchased Eurofins DiscoverX KINOMEscan
The experiment in a line: KINOMEscan at 1 μM, STK39. Format: binding. Particulars: 1000 nM, read-out: Percent Control.
From the text: as §2

The target in a further assay is T20, RIPK5 (Homo sapiens, UniProt Q6XUX3).
T20 construct: purchased Eurofins DiscoverX KINOMEscan
The experiment in a line: KINOMEscan at 1 μM, RIPK5. Format: binding. Particulars: 1000 nM, read-out: Percent Control.
From the text: as §2

The target in the next assay is T21, PKNB(M.tuberculosis) (Mycobacterium tuberculosis, UniProt P9WI81).
T21 construct: purchased Eurofins DiscoverX KINOMEscan
In words: KINOMEscan at 1 μM, PKNB(M.tuberculosis). It is filed as binding. Particulars: 1000 nM, read-out: Percent Control.
From the text: as §2

Assay [4] has as its target T22, ABL1(T315I)-phosphorylated (Homo sapiens, UniProt P00519, T315I).
T22 construct: purchased Eurofins DiscoverX KINOMEscan
The experiment in a line: KINOMEscan at 1 μM, ABL1(T315I)-phosphorylated. Format: binding. Particulars: 1000 nM, read-out: Percent Control.
From the text: as §2

The target of a further assay is T23, NDR1 (Homo sapiens, UniProt Q15208).
T23 construct: purchased Eurofins DiscoverX KINOMEscan
The experiment in a line: KINOMEscan at 1 μM, NDR1. It is filed as binding. Particulars: 1000 nM, read-out: Percent Control.
From the text: as §2

For another assay, the target named is T24, PIK3CA(I800L) (Homo sapiens, UniProt P42336, I800L).
T24 construct: purchased Eurofins DiscoverX KINOMEscan
In words: KINOMEscan at 1 μM, PIK3CA(I800L). To be noted: 1000 nM, read-out: Percent Control. Format: binding.
From the text: as §2

The target in another assay is T25, MEK2 (Homo sapiens, UniProt P36507).
T25 construct: purchased Eurofins DiscoverX KINOMEscan
T25 sequence (P36507 whole entry): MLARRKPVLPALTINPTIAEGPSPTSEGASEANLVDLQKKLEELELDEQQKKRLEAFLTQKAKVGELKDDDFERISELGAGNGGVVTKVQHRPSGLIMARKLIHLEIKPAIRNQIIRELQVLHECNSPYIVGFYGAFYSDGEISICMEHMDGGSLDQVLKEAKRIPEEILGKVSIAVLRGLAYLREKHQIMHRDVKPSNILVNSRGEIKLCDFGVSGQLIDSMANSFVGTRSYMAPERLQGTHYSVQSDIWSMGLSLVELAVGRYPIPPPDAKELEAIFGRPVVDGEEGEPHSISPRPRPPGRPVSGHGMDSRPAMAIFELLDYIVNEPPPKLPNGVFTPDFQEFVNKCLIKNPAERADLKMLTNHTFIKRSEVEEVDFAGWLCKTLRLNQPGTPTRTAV
The experiment in a line: KINOMEscan at 1 μM, MEK2. Format: binding. Particulars: 1000 nM, read-out: Percent Control.
From the text: as §2

Another assay concerns the target T26, KIT (Homo sapiens, UniProt P10721).
T26 construct: purchased Eurofins DiscoverX KINOMEscan
In words: KINOMEscan at 1 μM, KIT. It is filed as binding. To be noted: 1000 nM, read-out: Percent Control.
From the text: as §2

In the next assay the target is T27, BIKE (Homo sapiens, UniProt Q9NSY1).
T27 construct: purchased Eurofins DiscoverX KINOMEscan
In words: KINOMEscan at 1 μM, BIKE. Format: binding. Particulars: 1000 nM, read-out: Percent Control.
From the text: as §2

A further assay concerns the target T28, FLT3(D835V) (Homo sapiens, UniProt P36888, D835V).
T28 construct: purchased Eurofins DiscoverX KINOMEscan
The experiment in a line: KINOMEscan at 1 μM, FLT3(D835V). Format: binding. Particulars: 1000 nM, read-out: Percent Control.
From the text: as §2

The target in another assay is T29, RIPK2 (Homo sapiens, UniProt O43353).
T29 construct: purchased Eurofins DiscoverX KINOMEscan
T29 sequence (O43353 whole entry): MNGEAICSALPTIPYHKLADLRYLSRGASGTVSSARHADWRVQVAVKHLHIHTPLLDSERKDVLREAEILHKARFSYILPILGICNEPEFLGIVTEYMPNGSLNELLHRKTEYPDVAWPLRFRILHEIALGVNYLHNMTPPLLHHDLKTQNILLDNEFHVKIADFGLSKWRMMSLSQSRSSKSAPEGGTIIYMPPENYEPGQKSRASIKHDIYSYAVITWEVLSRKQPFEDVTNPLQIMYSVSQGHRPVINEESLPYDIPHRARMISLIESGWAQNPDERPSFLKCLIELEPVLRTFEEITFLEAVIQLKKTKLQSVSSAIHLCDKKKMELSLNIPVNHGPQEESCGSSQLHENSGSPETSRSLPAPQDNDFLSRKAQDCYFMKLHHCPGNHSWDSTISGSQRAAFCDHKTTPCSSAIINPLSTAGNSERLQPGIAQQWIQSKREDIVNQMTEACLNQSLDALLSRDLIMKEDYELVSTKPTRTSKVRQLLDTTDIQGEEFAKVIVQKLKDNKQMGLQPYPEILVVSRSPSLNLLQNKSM
In words: KINOMEscan at 1 μM, RIPK2. It is filed as binding. To be noted: 1000 nM, read-out: Percent Control.
From the text: as §2

The next assay deals with T30, ADCK4 (Homo sapiens, UniProt Q96D53).
T30 construct: purchased Eurofins DiscoverX KINOMEscan
In words: KINOMEscan at 1 μM, ADCK4. Format: binding. To be noted: 1000 nM, read-out: Percent Control.
From the text: as §2

Another assay has as its target T31, EPHA6 (Homo sapiens, UniProt Q9UF33).
T31 construct: purchased Eurofins DiscoverX KINOMEscan
In words: KINOMEscan binding assay at 1 μM, EPHA6. Particulars: Compound Concentration 1000 nM; read-out: Percent Control.
From the text: as §2

The target in a further assay is T32, GCN2(Kin.Dom.2,S808G) (Homo sapiens, UniProt Q9P2K8, S808G).
T32 construct: GCN2(Kin.Dom.2,S808G); purchased Eurofins DiscoverX KINOMEscan
T32 sequence (Q9P2K8 590-1001 S808G limits assumed): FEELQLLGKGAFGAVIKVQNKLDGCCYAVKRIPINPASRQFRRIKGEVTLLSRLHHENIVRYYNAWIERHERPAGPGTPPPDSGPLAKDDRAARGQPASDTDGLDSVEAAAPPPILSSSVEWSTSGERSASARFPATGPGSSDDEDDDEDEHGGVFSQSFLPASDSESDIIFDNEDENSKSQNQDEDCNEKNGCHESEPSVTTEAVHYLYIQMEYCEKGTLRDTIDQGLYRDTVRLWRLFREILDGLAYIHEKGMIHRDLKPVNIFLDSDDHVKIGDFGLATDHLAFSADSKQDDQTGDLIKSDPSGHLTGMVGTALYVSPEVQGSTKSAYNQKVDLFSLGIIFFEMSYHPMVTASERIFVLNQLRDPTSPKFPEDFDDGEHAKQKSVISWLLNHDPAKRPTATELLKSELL
In words: KINOMEscan binding assay at 1 μM, GCN2(Kin.Dom.2,S808G). To be noted: Compound Concentration 1000 nM; read-out: Percent Control.
From the text: as §2

In the next assay the target is T33, PIK3CA(M1043I) (Homo sapiens, UniProt P42336, M1043I).
T33 construct: purchased Eurofins DiscoverX KINOMEscan
In words: KINOMEscan binding assay at 1 μM, PIK3CA(M1043I). To be noted: Compound Concentration 1000 nM; read-out: Percent Control.
From the text: as §2

For the compound `Cc1cccc(-c2cnc3occ(-c4ccc(C(=O)O)c(C5CCCC5)c4)c3c2)c1` [SGC-CAMKK2-1 (YL-36)], the remaining binding at 1 µM worked out at 43% at ACVR2B; 78% on MAK; 82% on PAK1; 87% at EGFR(S752-I759del); 92% on GSK3A; 92% on TLK1. The remaining binding at 1 µM on STK33 is 98%; in assay [1], 100%; on EIF2AK1 it was 100%; on HIPK3, 100%; at IKK-alpha [2] it was 100%; at JNK1, 100%. Moreover, the remaining binding at 1 µM on MST1, on PDGFRA, at PLK4 and on SRPK3 was 100% throughout.

In the case of `O=C(O)c1ccc(-c2coc3ncc(-c4ccccc4)cc23)cc1Cl` [SGC-CAMKK2-1N (UNC-YL-83)], the remaining binding at 1 µM on GSK3B is 47%; on CDK11, 56%; at IKK-alpha [3] it was 75%; at STK39, 77%; on RIPK5 it was 78%; on PKNB(M.tuberculosis), 83%. The remaining binding at 1 µM in assay [4] was determined as 84%; at NDR1, 87%; on PIK3CA(I800L), 87%; at MEK2, 88%; at KIT, 89%; at BIKE, 94%. The remaining binding at 1 µM was determined as 97% at FLT3(D835V); 99% on RIPK2; 100% at ADCK4; 100% on EPHA6; 100% on GCN2(Kin.Dom.2,S808G); 100% on PIK3CA(M1043I).
